From ChEMBL document CHEMBL4321885, “Biomimetic Macrocyclic Inhibitors of Human Cathepsin D: Structure-Activity Relationship and Binding Mode Analysis” (J Med Chem, 2020)
Activity calls are given as the source filed them. No cut-off for these calls is given here. Non-standard residues stand in square brackets, D forms with d. Residues, ends and D or L forms follow the SMILES beside them. *: point of attachment. Sta = CC(C)C[C@H](N)[C@@H](O)CC(=O)O; Isovaleryl = CC(C)CC(=O)*

Assays:
Cathepsin D = Cathepsin D (Homo sapiens, UniProt P07339); assay: Inhibition of human placenta CatD using Abz-Lys-Pro-Ala-Glu-Phe-Nph-Ala-Leu as substrate preincubated for 10 mins followed by substrate addition and measured by FRET assay
Renin (Homo sapiens) [1] = molecular target: T1, Renin (Homo sapiens) (UniProt P00797); assay: Inhibition of recombinant human N-terminal FLAG-tagged renin (67 to 406 residues) expressed in HEK cells at 50 nM using Arg-Glu(EDANS)-Ile-His-Pro-Phe-His-Leu-Val-Ile-His-Thr-Lys(Dabcyl)-Arg as substrate preincubated for 10 mins followed by substrate addition and measured by FRET assay
T1 sequence (whole entry): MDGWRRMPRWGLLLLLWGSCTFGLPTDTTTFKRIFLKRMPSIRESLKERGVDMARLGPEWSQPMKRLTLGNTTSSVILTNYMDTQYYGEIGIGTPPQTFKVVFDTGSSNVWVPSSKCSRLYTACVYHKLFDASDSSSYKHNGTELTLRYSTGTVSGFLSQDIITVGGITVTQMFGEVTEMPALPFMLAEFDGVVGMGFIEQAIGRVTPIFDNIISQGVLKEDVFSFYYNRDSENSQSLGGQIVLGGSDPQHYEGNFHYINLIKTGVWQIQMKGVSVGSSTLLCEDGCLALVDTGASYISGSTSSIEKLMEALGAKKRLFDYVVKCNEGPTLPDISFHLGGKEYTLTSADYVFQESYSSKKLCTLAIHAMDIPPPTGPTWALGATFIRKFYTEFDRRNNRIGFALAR

[2] = molecular target: Beta-secretase 1 (Homo sapiens) (UniProt P56817); assay: Inhibition of recombinant human C-terminal 10His-tagged BACE1 expressed in mouse NS0 cells at 50 nM using Mca-Ser-Glu-Val-Asn-Leu-Asp-Ala-Glu-Phe-Arg-Lys(Dnp)-Arg-Arg as substrate preincubated for 10 mins followed by substrate addition and measured by FRET assay
[3] = molecular target: Protease (Human immunodeficiency virus 1) (UniProt Q9YQ12); assay: Inhibition of HIV1 protease at 50 nM using Abz-Tyr-Ile-Nle-Nph-Gln-Arg as substrate preincubated for 10 mins followed by substrate addition and measured by FRET assay
Ixodes ricinus = assay: Inhibition of Ixodes ricinus CatD expressed in Escherichia coli BL21(DE3) at 50 nM using Abz-Lys-Pro-Ala-Glu-Phe-Nph-Ala-Leu as substrate preincubated for 10 mins followed by substrate addition and measured by FRET assay
[4] = molecular target: Saccharopepsin (Saccharomyces cerevisiae S288c) (UniProt P07267); assay: Inhibition of Baker's yeast proteinase A at 50 nM using Abz-Lys-Pro-Ala-Glu-Phe-Nph-Ala-Leu as substrate preincubated for 10 mins followed by substrate addition and measured by FRET assay
Renin (Homo sapiens) [5] = molecular target: T1, Renin (Homo sapiens); assay: Inhibition of recombinant human N-terminal FLAG-tagged renin (67 to 406 residues) expressed in HEK cells at 5 uM using Arg-Glu(EDANS)-Ile-His-Pro-Phe-His-Leu-Val-Ile-His-Thr-Lys(Dabcyl)-Arg as substrate preincubated for 10 mins followed by substrate addition and measured by FRET assay
[6] = molecular target: Beta-secretase 1 (Homo sapiens) (UniProt P56817); assay: Inhibition of recombinant human C-terminal 10His-tagged BACE1 expressed in mouse NS0 cells at 5 uM using Mca-Ser-Glu-Val-Asn-Leu-Asp-Ala-Glu-Phe-Arg-Lys(Dnp)-Arg-Arg as substrate preincubated for 10 mins followed by substrate addition and measured by FRET assay
[7] = molecular target: Protease (Human immunodeficiency virus 1) (UniProt Q9YQ12); assay: Inhibition of HIV1 protease at 5 uM using Abz-Tyr-Ile-Nle-Nph-Gln-Arg as substrate preincubated for 10 mins followed by substrate addition and measured by FRET assay

Sequence of Cathepsin D (P07339 65-162 limits assumed): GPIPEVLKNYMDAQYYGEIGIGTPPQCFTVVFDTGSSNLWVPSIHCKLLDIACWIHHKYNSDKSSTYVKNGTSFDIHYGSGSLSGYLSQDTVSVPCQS
Sequence of Cathepsin D (P07339 169-412 limits assumed): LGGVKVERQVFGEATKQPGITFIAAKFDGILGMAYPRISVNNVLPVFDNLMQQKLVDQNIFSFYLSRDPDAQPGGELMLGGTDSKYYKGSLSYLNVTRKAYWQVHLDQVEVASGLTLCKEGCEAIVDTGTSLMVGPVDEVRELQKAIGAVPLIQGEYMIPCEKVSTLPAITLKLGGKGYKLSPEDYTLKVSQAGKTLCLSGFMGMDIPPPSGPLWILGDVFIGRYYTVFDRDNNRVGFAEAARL
Sequence of Saccharopepsin (Saccharomyces cerevisiae S288c) (P07267 whole entry, the tested form may be a part): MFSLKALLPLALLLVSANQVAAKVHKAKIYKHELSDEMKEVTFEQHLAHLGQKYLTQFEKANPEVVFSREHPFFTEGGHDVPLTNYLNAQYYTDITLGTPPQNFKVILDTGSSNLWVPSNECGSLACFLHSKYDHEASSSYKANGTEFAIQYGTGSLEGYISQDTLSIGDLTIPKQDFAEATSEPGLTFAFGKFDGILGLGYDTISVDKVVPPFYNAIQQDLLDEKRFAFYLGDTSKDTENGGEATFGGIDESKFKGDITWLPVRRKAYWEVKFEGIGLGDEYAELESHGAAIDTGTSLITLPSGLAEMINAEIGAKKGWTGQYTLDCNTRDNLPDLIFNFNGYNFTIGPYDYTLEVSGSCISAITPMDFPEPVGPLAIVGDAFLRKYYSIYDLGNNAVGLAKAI
Sequence of Beta-secretase 1 (Homo sapiens) (P56817 whole entry): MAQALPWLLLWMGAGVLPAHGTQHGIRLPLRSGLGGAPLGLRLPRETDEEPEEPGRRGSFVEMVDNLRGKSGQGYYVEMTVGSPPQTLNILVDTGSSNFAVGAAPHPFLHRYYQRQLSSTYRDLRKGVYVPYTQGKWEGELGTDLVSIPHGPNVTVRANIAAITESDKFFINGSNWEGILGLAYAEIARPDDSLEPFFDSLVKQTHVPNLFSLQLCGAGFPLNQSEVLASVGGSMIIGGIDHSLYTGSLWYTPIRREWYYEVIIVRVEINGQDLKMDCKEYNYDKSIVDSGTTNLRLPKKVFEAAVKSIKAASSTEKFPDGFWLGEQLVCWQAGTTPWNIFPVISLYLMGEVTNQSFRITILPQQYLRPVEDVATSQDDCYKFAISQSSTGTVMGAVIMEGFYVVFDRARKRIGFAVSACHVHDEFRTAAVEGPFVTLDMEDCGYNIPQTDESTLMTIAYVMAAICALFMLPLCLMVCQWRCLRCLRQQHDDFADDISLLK
Sequence of Protease (Human immunodeficiency virus 1) (Q9YQ12 as listed by the source): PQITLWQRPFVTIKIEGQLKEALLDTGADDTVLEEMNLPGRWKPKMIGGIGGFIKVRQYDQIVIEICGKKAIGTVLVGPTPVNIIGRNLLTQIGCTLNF

IC50 (Cathepsin D)	inhibition (Renin (Homo sapiens) [1])	inhibition [2]	inhibition [3]	inhibition (Ixodes ricinus)	inhibition [4]	inhibition (Renin (Homo sapiens) [5])	inhibition [6]	inhibition [7]	Structure (SMILES)
340 nM	inactive	inactive	inactive	Active	Active	Active	Active	Active	CC(C)[C@@H]1NC(=O)C[C@H](O)[C@H](CS)NC(=O)CCCCCCCCCCCNC1=O
39 nM	inactive	inactive	inactive	Active	Active	Active	Active	Active	CC(C)[C@@H]1NC(=O)C[C@H](O)[C@H](Cc2ccc(O)cc2)NC(=O)CCCCCCCCCCCNC1=O
310 nM	inactive	inactive	inactive	Active	Active	Active	Active	Active	CC(C)C[C@@H]1NC(=O)CCCCCCCCCCCNC(=O)[C@H](C)NC(=O)C[C@@H]1O
40 nM	inactive	inactive	inactive	Active	Active	Active	Active	Active	CC(C)[C@@H]1NC(=O)C[C@H](O)[C@H](Cc2ccccc2)NC(=O)CCCCCCCCCCNC1=O
5.8 nM	inactive	inactive	inactive	Active	Active	Active	Active	Active	CC(C)[C@@H]1NC(=O)C[C@H](O)[C@H](Cc2ccccc2)NC(=O)CCCCCCCCCCCNC1=O
32 nM	inactive	inactive	inactive	Active	Active	Active	Active	Active	CC(C)[C@@H]1NC(=O)C[C@H](O)[C@H](Cc2ccccc2)NC(=O)CCCCCCCCCCCCCCNC1=O
20 nM	inactive	inactive	inactive	Active	Active	Active	Active	Active	CC(C)[C@@H]1NC(=O)C[C@H](O)[C@H](CSCc2ccccc2)NC(=O)CCCCCCCCCCCNC1=O
600 nM	inactive	inactive	inactive	Active	Active	Active	Active	Active	CC(C)[C@@H]1NC(=O)C[C@H](O)[C@H](Cc2cscn2)NC(=O)CCCCCCCCCCCNC1=O
4.2 nM	inactive	inactive	inactive	Active	Active	Active	Active	Active	CC(C)[C@@H]1NC(=O)C[C@H](O)[C@H](Cc2ccc(Cl)c(Cl)c2)NC(=O)CCCCCCCCCCCNC1=O
3.5 nM	inactive	inactive	inactive	Active	Active	Active	Active	Active	CC(C)[C@@H]1NC(=O)C[C@H](O)[C@H](Cc2ccccc2)NC(=O)CCCCCCCCCCCCNC1=O
0.6 nM	inactive	inactive	inactive	Active	Active	Active	Active	Active	CC(C)[C@@H]1NC(=O)C[C@H](O)[C@H](Cc2ccc3ccccc3c2)NC(=O)CCCCCCCCCCCNC1=O

Further lines, the compound ahead of its results:

Structure (SMILES)	IC50 (Cathepsin D)	inhibition (Renin (Homo sapiens) [1])	inhibition [2]	inhibition [3]	inhibition (Ixodes ricinus)	inhibition [4]	inhibition (Renin (Homo sapiens) [5])	inhibition [6]	inhibition [7]
CC(C)CC(=O)N[C@@H](CC(C)C)[C@@H](O)CC(=O)N[C@@H](C)C(=O)O	> 200000 nM	–	–	–	–	–	–	–	–
O=C1C[C@H](O)[C@H](Cc2ccccc2)NC(=O)CCCCCCCCCCCNC(=O)[C@H](C2CCCCC2)N1	8.2 nM	inactive	inactive	inactive	Active	Active	Active	Active	Active
CC(C)[C@@H]1NC(=O)NC[C@H](O)[C@H](Cc2ccccc2)NC(=O)CCCCCCCCCCCNC1=O	21 nM	inactive	inactive	inactive	Active	Active	Active	Active	Active
CC(C)[C@@H]1NC(=O)C[C@H](O)[C@H](Cc2ccc(OCc3ccccc3)cc2)NC(=O)CCCCCCCCCCCNC1=O	55 nM	inactive	inactive	inactive	Active	Active	Active	Active	Active
CC(C)CC(=O)N[C@H](C(=O)N[C@H](C(=O)N[C@@H](CC(C)C)[C@@H](O)CC(=O)N[C@@H](C)C(=O)O)C(C)C)C(C)C (Isovaleryl-VV[Sta]A-OH)	40 nM	–	–	–	–	–	–	–	–
C[C@@H](O)[C@@H]1NC(=O)C[C@H](O)[C@H](Cc2ccccc2)NC(=O)CCCCCCCCCCCNC1=O	500 nM	inactive	inactive	inactive	Active	Active	Active	Active	Active
CC(C)CC(=O)N[C@H](C(=O)N[C@H](C(=O)N[C@@H](CC(C)C)[C@@H](O)CC(=O)O)C(C)C)C(C)C (Isovaleryl-Val-Val-[Sta]-OH)	500 nM	–	–	–	–	–	–	–	–
C[C@@H]1NC(=O)C[C@H](O)[C@H](Cc2ccccc2)NC(=O)CCCCCCCCCCCNC1=O	68 nM	inactive	inactive	inactive	Active	Active	Active	Active	Active
CC(C)CC(=O)N[C@@H](CC(C)C)[C@@H](O)CC(=O)N[C@@H](C)C(=O)N[C@@H](CC(C)C)[C@@H](O)CC(=O)O	2500 nM	–	–	–	–	–	–	–	–
C[C@@H](OCc1ccccc1)[C@@H]1NC(=O)C[C@H](O)[C@H](Cc2ccccc2)NC(=O)CCCCCCCCCCCNC1=O	560 nM	inactive	inactive	inactive	Active	Active	Active	Active	Active
CC(C)[C@@H]1NC(=O)CC[C@H](Cc2ccccc2)NC(=O)CCCCCCCCCCCNC1=O	2000 nM	inactive	inactive	inactive	Active	Active	Active	Active	Active
